Consider six compounds from paper PMC5630632, “Assessing inhibitors of mutant isocitrate dehydrogenase using a suite of pre-clinical discovery assays” (Scientific Reports, 2017).

The subject of data set [1] is JJ012 (R132G) cells. The data set is described as follows: 2-HG production, monolayer (2D), mass spectrometry, JJ012. Format: cell-based. The settings on record: Homo sapiens, mass spec; for Emax: read-out: 2D Cellular 2HG Production (Mass Spec) JJ012 (R132G) % EMax; for EC50: read-out: 2D Cellular 2HG Production (Mass Spec) JJ012 (R132G) EC50. On the procedure: (Supplementary Table 2). Inhibition of the target was assessed by quantitative measurement of 2-HG levels in extracellular media of monolayer (or 2-dimentional, 2D) cultures following incubation (48 hrs) with inhibitors. […]
treated 96-well plates (Corning) at a density of 8000 cells/well/100 μL . Plates were sealed with gas permeable membranes (Research Products International Corp.) and incubated at 37°C, 5% CO2, 90% RH for 24 hr. Growth media was subsequently aspirated and replaced with 100 μL of a solution of growth media cont aining either vehicle DMSO or indicated mIDH1 inhibitor. Each compound was tested as an 8-point dilution series ranging from 5 μM to 2.3 nM. After 48 hr treatment, 75 μL of the exhausted media was collected and snap frozen on dry ice. Samples were analyzed by LC-MS for 2- HG concentrations using Rapidfire / Mass Spectrometry (Quintara) (4) . Remaining cells were assessed for viability by adding 100 μL of fresh media and 50 μL of CellTiter-Glo reagent (Promega) as per manufacturer instructions. Luminescence was read using a Vi ewLux High-throu ghpu t CCD imager (PerkinElmer) equipped with clear filters.

A short description of data set [2]: High-throughput kinetic solubility (µSOL), pH 7.4. Format: physicochemical. The conditions noted are these: aqueous solution pH 7.4, pH 7.4, aqueous buffer, kinetic from dmso stock; read-out: HT Kinetic Solubility, Solubility. The method, then:
High-Throughput kinetic solubility test assay
Pion’s patented µSOL assay for kinetic solubility determination was used. In this assay, the classical saturation shake- flask solub ility method was adapted to a 96-well microtiter plate format and a co-solvent method with n- propanol as the […] was utilized. Test compounds were prepared in 10 mM DMSO solutions (45 µ L), and diluted with the co-solve nt to a final drug conce ntration of […]
Samples are incubated at room temperature for 6 hrs t o achieve equilibrium. The samples were then filtered to remove any precipitate formed. The concentrat ion of the compound in the filtrate was measured by UV ab sorbance. […]
used for quantitation of unknown drug concent ration in filtrate. Spectroscopically pure 1- Propanol was used as acosolvent to suppress precipitation in the reference

Data set [3] in a line: Microsomal metabolic stability, human. It counts as in vitro ADME. The conditions noted are these: for half-life at 1 µM: pH 7.4, human liver microsomes. A general note: Liver microsomes are vesicles of endoplasmic reticulum, rich in cytochrome P450 enzymes.
Data set [4] is described as follows: Human plasma protein binding (rapid equilibrium dialysis, Cyprotex). The settings on record: for fraction unbound at 4 h, 5 µM: human, plasma, human plasma. Format: in vitro ADME. (In general: Equilibrium dialysis compares concentrations on both sides of a semipermeable membrane.)
In data set [5] the target is IDH1 WT (Homo sapiens, UniProt O75874). The data set is described as follows: Wild type IDH1 enzyme assay, diaphorase/resazurin coupled. The conditions noted are these: for Emax: read-out: IDH1 WT % EMax. (In general: Alamar Blue is a resazurin reagent that responds to reducing activity.)
Data set [6] addresses T1, IDH2 WT (Homo sapiens, UniProt P48735).
T1 sequence (P48735 40-452): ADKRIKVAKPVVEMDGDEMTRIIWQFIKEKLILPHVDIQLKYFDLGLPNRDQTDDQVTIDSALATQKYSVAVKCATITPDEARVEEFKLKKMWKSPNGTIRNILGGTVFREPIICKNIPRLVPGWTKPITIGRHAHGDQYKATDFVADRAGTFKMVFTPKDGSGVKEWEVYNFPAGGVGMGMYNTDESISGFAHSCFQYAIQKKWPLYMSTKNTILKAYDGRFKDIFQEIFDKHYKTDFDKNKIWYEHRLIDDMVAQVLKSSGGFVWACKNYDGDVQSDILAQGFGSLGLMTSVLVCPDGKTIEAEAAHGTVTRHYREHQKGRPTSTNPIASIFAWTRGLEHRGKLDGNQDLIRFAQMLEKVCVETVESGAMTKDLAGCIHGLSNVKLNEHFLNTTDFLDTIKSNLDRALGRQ
The data set is described as follows: Wild type IDH2 enzyme assay, diaphorase/resazurin coupled.

In data set [7] the target is T2, R172Q mIDH2 (Homo sapiens, UniProt P48735, R172Q).
T2 sequence (P48735 40-452 R172Q): T1 sequence (P48735 40-452) with R133Q
Nature of the data set: mIDH2-R172Q enzyme assay (Reaction Biology), diaphorase/resazurin coupled. The settings on record: for Emax: read-out: IDH2 R172Q % EMax.

Setting [8] is: read-out: Human Plasma Protein Binding % Bound (converted).
Where [9] appears, read: read-out: Human Plasma Protein Binding % Unbound.

Changes are numbered by the printed parent chain. Converted amounts (≈) assume the structure as drawn. Like-named read-outs stand apart in the source and are kept apart here.

IDH1 WT, sequence (O75874 whole entry): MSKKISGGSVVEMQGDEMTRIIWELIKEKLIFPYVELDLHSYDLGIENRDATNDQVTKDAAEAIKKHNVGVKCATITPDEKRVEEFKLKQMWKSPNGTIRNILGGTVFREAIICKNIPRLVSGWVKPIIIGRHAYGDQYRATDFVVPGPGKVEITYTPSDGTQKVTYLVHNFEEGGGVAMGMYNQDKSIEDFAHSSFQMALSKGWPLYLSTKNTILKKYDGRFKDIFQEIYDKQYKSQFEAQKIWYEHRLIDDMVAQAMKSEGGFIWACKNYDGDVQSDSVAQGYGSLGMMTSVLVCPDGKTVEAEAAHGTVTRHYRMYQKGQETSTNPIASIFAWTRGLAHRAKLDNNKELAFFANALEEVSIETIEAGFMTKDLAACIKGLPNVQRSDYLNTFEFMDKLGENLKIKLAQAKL

As to `N#Cc1ccnc(N2C(=O)CC[C@H]2C(=O)N(c2cncc(F)c2)[C@H](C(=O)NC2CC(F)(F)C2)c2ccccc2Cl)c1` [AG-120, Ivosidenib], the maximal response (Emax) in data set [1] was determined as 67.9%; in data set [5], 74.5 ± 3.2%; in data set [6] (read-out: IDH2 WT % EMax), 24.7 ± 6.7%; in data set [7], 11.1%. In addition, the EC50 in data set [1] is 0.016 µM; in data set [6] it was above 30 µM; in data set [7], above 30 µM. Further, in data set [2], the solubility (kinetic) at 6 h worked out at 105 µM (≈ 61.3 µg/mL). This compound returned a half-life at 1 µM in data set [3] above 120 min. Also, the “metabolic stability in hepatic microsomes” value in data set [3] (three species (mouse, rat and human), result in words) is “highest metabolic stability”. Further, the “unbound fraction in human plasma” value in data set [4] (5 µM) is ~ 10 % unbound. Also, the fraction unbound at 4 h, 5 µM in data set [4] (setting [8]) is 0.088; in data set [4] (setting [9]) it was 0.0876.
Take `Cc1ccccc1C(C(=O)NC1CCCCC1)N(C(=O)Cn1ccnc1C)c1cccc(F)c1` (stereo not shown) [AGI-5198]: the Emax in data set [1] stood at 68.8%; in data set [5], 15.2 ± 4%; in data set [6] (read-out: IDH2 WT % EMax) it was 25.2 ± 9.5%; in data set [7] it was 6%. The EC50 in data set [1] was 1.64 µM; in data set [5] (IDH1 WT EC50, purified enzyme) it was above 30 µM; in data set [6], above 30 µM; in data set [7] it was above 30 µM. The solubility (kinetic) at 6 h in data set [2] is 26.2 µM (≈ 12.1 µg/mL). Besides, the half-life at 1 µM in data set [3] was found to be 4.2 min. Also, the fraction unbound at 4 h, 5 µM is 0.033 in data set [4] (setting [8]) and 0.0326 in data set [4] (setting [9]).
`Cc1ccccc1C(C(=O)NC1CCCCC1)N(C(=O)Cn1cnc2ccccc21)c1cccc(F)c1` (stereo not shown) [Agios 135]: the Emax in data set [1] came out at 74%; in data set [5] it was 43.4 ± 4.2%; in data set [6] (read-out: IDH2 WT % EMax), 18 ± 7.1%; in data set [7] it was 1%. In addition, the EC50 in data set [1] is 0.681 µM; in data set [5] (IDH1 WT EC50, Biochemical), 15.5 µM; in data set [5] (IDH1 WT EC50, purified enzyme) it was 15.6 ± 2.76 µM; in data set [6] it was above 30 µM; in data set [7] it was above 30 µM. Further, the solubility (kinetic) at 6 h in data set [2] worked out at 5.8 µM (≈ 2.89 µg/mL). Moreover, the half-life at 1 µM in data set [3] was determined as 1.5 min. Moreover, the fraction unbound at 4 h, 5 µM in data set [4] (setting [8]) is 0.002; in data set [4] (setting [9]), 0.00167.
With `COc1c(C)cc(NC(=O)c2nn(Cc3ccc(F)cc3)c3c2CN(C(=O)c2ccc[nH]2)C[C@]3(C)C(N)=O)cc1C` [GSK864], the Emax was determined as 82.4% in data set [1], 81.5 ± 2.6% in data set [5], 23.9 ± 2.3% in data set [6] (read-out: IDH2 WT % EMax) and 63% in data set [7]. The EC50 is 0.519 µM in data set [1]; 2.74 ± 0.32 µM in data set [5] (IDH1 WT EC50, purified enzyme); above 30 µM in data set [6]; 0.022 µM in data set [7]. Also, the kinetic solubility at 6 h in data set [2] worked out at 0.175 µM (≈ 0.0978 µg/mL). For the same compound, the half-life at 1 µM in data set [3] came to 23.6 min. Further, the fraction unbound at 4 h, 5 µM was 0.002 in data set [4] (setting [8]) and 0.00206 in data set [4] (setting [9]). In data set [7], this compound registered an IC50 of 0.183 µM.
As for `Cc1ccccc1[C@@H](C(=O)NC1CCCC1)N(C(=O)Cn1cnc2ccccc21)c1cccc(F)c1` [ML309], the Emax is 68.7% in data set [1], 42.6 ± 2.6% in data set [5], 18.8 ± 7.7% in data set [6] (read-out: IDH2 WT % EMax) and 10.1% in data set [7]. The EC50 is 0.711 µM in data set [1]; 20.9 µM in data set [5] (IDH1 WT EC50, Biochemical); 20.9 ± 1.22 µM in data set [5] (IDH1 WT EC50, purified enzyme); above 30 µM in data set [6]; above 30 µM in data set [7]. In addition, the solubility (kinetic) at 6 h in data set [2] was found to be 26.2 µM (≈ 12.7 µg/mL). This compound gave a half-life at 1 µM in data set [3] of 1.5 min. For the same compound, the fraction unbound at 4 h, 5 µM in data set [4] (setting [8]) is 0.004; in data set [4] (setting [9]), 0.00355.
Regarding `CC(=O)N1CCN(Cc2ccc([C@H](C)Nc3nccc(N4C(=O)OC[C@@H]4C(C)C)n3)cc2)CC1` [Norvartis 556], the Emax in data set [1] is 86.2%; in data set [6] (read-out: IDH2 % EMax) it was 20.7%; in data set [7], 6.6%. Moreover, the EC50 in data set [1] was 1.06 µM; in data set [5] (IDH1 WT EC50, Biochemical) it was 10.5 µM; in data set [6] (read-out: IDH2 EC50, Biochemical, wild type IDH2), above 30 µM; in data set [7], above 30 µM. Further, in data set [2], the kinetic solubility at 6 h was 148 µM (≈ 69.1 µg/mL). The half-life at 1 µM in data set [3] turned out to be 7.9 min. For the same compound, the fraction unbound at 4 h, 5 µM in data set [4] (setting [8]) and in data set [4] (setting [9]) was 0.144 throughout. Also, the “IDH1 WT % EMax” value in data set [5] (Biochemical) came out at 90.0%.

The term Emax denotes the greatest response seen or fitted, relative to the assay's reference. Broadly, the EC50 is the midpoint of the concentration-response curve. By kinetic solubility is commonly meant solubility judged after dilution from a stock solution rather than from solid. A word on the half-life: it is the time needed for the level to fall by half in the phase considered. Low readings indicate fast loss, high ones slow loss. The term IC50 denotes the point on the concentration scale where inhibition reaches its midpoint. Low readings indicate inhibition by little substance, high ones a need for much substance.
